Literature values, collected in publication PMC11390321 (Cancer chemotherapy and pharmacology, 2024).

Settings: tumor-bearing mice, orally administered; cited from earlier work

C[C@@H]1COCCN1c1cc(C2([S@](C)(=N)=O)CC2)nc(-c2cc[nH]c3nccc2-3)n1 [ceralasertib]
bone marrow exposure relative to plasma: 4.60 fold
